The record followed here is US11534457B2, “Use of dextran sulfate” (priority 2017, dated 2022).

The test system of one test is mouse cortical neurons. As to the kind of experiment: PI staining (DNA content, cell cycle, cell numbers, apoptotic fraction), Acumen cytometry. Format: cell-based. The settings on record: 0.01 and 0.1 mg/ml. As to the method:
The study aims were to evaluate the effect of LMW-DS on cell survival and expression of differentiation proteins in three cell types, cerebral cortical neurons, motor neurons and Schwann cells, using two concentrations 0.01 and 0.1 mg/ml of LMW-DS.
Neurons were cultured as 40,000 cells per well and Schwann cells 3,000 cells per. Cells were treated after 24 hours. The number of cells per well depended on the growth phenotype, proliferative capacity, etc.
PNGM was prepared by adding PNGM Singlequots (Lonza) to PNBM medium and pre-warmed to 37° C. Cells were thawed in a 37° C. water bath for no longer than 2 min and gently transferred into a 15 ml tube. 5 ml of medium was gently added drop-wise. Cell suspension was mixed by inverting the tube carefully twice. Cells were counted with a Cellometer AUTO T4 (Nexcelom Bioscience). 40,000 cells per well were seeded in previously coated 96-well plates. Cells were incubated at 37° C. with 5% CO2. After at 2-hour incubation 80 μl of medium was removed and replaced with 80 μl of fresh medium and cells were allowed to settle for 24 hours before drug treatment.
LMW-DS was prepared in the culture media of choice for each cell line and added to the respective wells in the doses 0.01 and 0.1 mg/ml. For cell survival assays cells were analyzed after 24 and 48 hours in eight identical wells/dose/time point. Differentiation and protein expression assay was analyzed after 48 hours, also in octuplicates.
Cells were fixated in the wells. Propidium iodine was used for viability assay. For immunohistochemical analysis, neurons were stained with βIII-tubulin, which is a tubulin specific for neurons. Schwann cells were stained for Myelin Basic Protein (MBP). For the negative controls PBST (0.1% Triton-X-100 in PBS) was applied instead of primary antibodies.
The Acumen cytometer allows the direct cytometric analysis of attached cells without prior detachment. […] The protein content of the cells can also be directly measured and expressed as either ‘total protein content’ or ‘mean protein content’.

Test [1] relates to /Mphg system [HUVEC and M1 macrophages+Zymosan (TLR2 ligand)]. Put plainly: BioMAP /Mphg system. The format is cell-based, Human. An excerpt:
In this study LMW-DS was characterized by profiling in the BioMAP® Diversity PLUS panel. The BioMAP® panel consists of human primary cell-based systems designed to model different aspects of the human body in an in vitro format. The 12 systems in the BioMAP® Diversity PLUS panel (Table 32) allow test agent characterization in an unbiased way across a broad set of systems modeling various human disease states. The BioMA®P systems are constructed with one or more primary cell types from healthy human donors, with stimuli, such as cytokines or growth factors, added to capture relevant signaling networks that naturally occur in human tissue or pathological conditions. Vascular biology is modeled in both a Th1 (3C system) and a Th2 (4H system) inflammatory environment, as well as in a Th1 inflammatory state specific to arterial smooth muscle cells (CASM3C system). […]
Systems are derived from either single cell types or co-culture systems. […] Test agents prepared in either DMSO (small molecules; final concentration 0.1%) or PBS (biologics) are added at the indicated concentrations 1-hr before stimulation, and remain in culture for 24-hrs or as otherwise indicated (48-hrs, MyoF system; 72-hrs, BT system (soluble readouts); 168-hrs, BT system (secreted IgG)). […]

For “low molecular weight dextran sulfate [LMW-DS]”, in the test with mouse cortical neurons, the cell numbers result is “significantly reduced” and the “fraction of apoptotic cells” value is listed as “increased slightly”. The “number of cells in the G2/M phase (PI content)” value in the test with mouse cortical neurons (24 and 48 h) is reported as “appeared to increase the number of cells in the G2/M phase”. The Increased biomarker activity entry in test [1] is given as “IL-8, CD69”.
